Source: patent US12195730B2, “High-throughput screening methods to identify small molecule targets” (A-Alpha Bio, Inc., priority 2020, dated 2025)

Columns and labels:
[1] = target: T1, interaction of IKZF1 with wild-type CRBN (Homo sapiens, UniProt Q96SW2); assay: AlphaSeq assay, effect of thalidomide and analogs on wild-type CRBN/IKZF1 interaction; assay type: cell-based; settings: FIG. 7B
T1 construct: expressed in transfected cells; host or cells: recombinant haploid yeast cells (surface display)
Description: (§1) FIG. 7A is a schematic illustrating thalidomide, or its analogs, mediating the interaction between CRBN and IKZF1.

[2] = system: interaction of IKZF1 with mutant CRBN; assay: AlphaSeq assay, effect of thalidomide and analogs on mutant CRBN/IKZF1 interaction; assay type: cell-based; settings: FIG. 7B
Description: as §1

[3] = target: interaction between FKBP12 and the FRB domain of TOR (Homo sapiens, UniProt P42345+P62942); assay: AlphaSeq yeast mating assay, effect of small molecule agonists on FKBP12/FRB interaction; settings: FIG. 6B; increasing compound concentration correlates with increasing mating efficiency
Sequence of interaction between FKBP12 and the FRB domain of TOR (P62942 whole entry, the tested form may be a part): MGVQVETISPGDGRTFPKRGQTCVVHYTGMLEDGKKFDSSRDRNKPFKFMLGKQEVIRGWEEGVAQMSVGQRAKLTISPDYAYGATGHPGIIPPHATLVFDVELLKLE
Sequence of interaction between FKBP12 and the FRB domain of TOR (P42345 2012-2144 limits assumed): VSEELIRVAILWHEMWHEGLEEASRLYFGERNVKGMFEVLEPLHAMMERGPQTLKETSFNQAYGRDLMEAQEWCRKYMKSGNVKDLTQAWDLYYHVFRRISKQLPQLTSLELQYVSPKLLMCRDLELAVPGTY

T1 sequence (Q96SW2 whole entry): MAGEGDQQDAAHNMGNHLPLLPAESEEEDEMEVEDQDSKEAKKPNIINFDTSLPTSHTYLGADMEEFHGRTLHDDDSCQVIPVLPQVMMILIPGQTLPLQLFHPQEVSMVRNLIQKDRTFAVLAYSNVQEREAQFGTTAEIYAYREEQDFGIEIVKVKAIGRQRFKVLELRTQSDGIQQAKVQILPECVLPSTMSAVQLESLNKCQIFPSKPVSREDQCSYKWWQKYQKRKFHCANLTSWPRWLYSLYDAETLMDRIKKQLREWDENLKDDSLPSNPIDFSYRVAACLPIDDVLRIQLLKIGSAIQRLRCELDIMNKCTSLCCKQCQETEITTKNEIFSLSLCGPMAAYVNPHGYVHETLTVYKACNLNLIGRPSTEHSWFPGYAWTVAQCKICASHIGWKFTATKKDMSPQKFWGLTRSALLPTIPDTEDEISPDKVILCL
T1 sequence (Q13422 whole entry partner): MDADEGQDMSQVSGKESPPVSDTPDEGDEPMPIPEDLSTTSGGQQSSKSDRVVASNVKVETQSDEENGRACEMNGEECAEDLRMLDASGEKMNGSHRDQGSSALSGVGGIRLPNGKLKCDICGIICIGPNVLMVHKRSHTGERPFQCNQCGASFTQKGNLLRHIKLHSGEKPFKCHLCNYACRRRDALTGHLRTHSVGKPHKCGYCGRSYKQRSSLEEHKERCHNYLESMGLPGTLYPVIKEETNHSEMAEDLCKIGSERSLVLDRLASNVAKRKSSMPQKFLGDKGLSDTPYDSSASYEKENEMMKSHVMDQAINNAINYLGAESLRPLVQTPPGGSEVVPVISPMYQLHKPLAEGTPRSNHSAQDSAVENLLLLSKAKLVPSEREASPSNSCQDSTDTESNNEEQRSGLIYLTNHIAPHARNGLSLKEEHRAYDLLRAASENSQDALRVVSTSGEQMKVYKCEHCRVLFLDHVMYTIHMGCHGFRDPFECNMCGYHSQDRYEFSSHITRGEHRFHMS

effect on the interaction of IKZF1 with wild-type CRBN [1]	effect on the interaction between FKBP12 and the FRB domain (mating efficiency) [3]	Structure (SMILES)	effect on the interaction of IKZF1 with mutant CRBN [2]
agonistic effect	–	Nc1cccc2c1C(=O)N(C1CCC(=O)NC1=O)C2=O (stereo not drawn) [pomalidomide]	not mutant CRBN
agonistic effect	–	O=C1CCC(N2C(=O)c3ccccc3C2=O)C(=O)N1 (stereo not drawn) [thalidomide]	not mutant CRBN
–	agonistic effect	CO[C@H]1C[C@@H]2CC[C@@H](C)[C@@](O)(O2)C(=O)C(=O)N2CCCC[C@H]2C(=O)O[C@H]([C@H](C)C[C@@H]2CC[C@@H](OCCO)[C@H](OC)C2)CC(=O)[C@H](C)/C=C(\C)[C@@H](O)[C@@H](OC)C(=O)[C@H](C)C[C@H](C)/C=C/C=C/C=C/1C [everolimus]	–
–	agonistic effect	CO[C@H]1C[C@@H]2CC[C@@H](C)[C@@](O)(O2)C(=O)C(=O)N2CCCC[C@H]2C(=O)O[C@H]([C@H](C)C[C@@H]2CC[C@@H](OP(C)(C)=O)[C@H](OC)C2)CC(=O)[C@H](C)/C=C(\C)[C@@H](O)[C@@H](OC)C(=O)[C@H](C)C[C@H](C)/C=C/C=C/C=C/1C [ridaforolimus]	–
